Series [1] concerns sciatic nerve. The note with it: followed by capsaicin; cited from earlier work.
Series [2] deals with sciatic nerve. Description: Rat sciatic nerve block: nociception (nocifensive withdrawal reflex and vocalization to skin pinch). The note with it: for kind of blockade (nociceptive vs motor), in words: local anesthetic with injection of capsaicin 0.05% 10 minutes later; for effect of vehicle on block, in words: vehicle (10% ethanol, 10% Tween 80, 80% saline) injected 10 min after the drug; for dose-response of block, in words: 0.0625, 0.125 and 0.25%, injection followed by capsaicin. It counts as in vivo.

In series [3] the test system is sciatic nerve. Description: Rat sciatic nerve block: motor function (extensor postural thrust). It counts as in vivo. How it is done:
The rats were assigned to treatments via block randomization with a block size of 8. All rats were anesthetized by inhalation of 1-2% of sevoflurane (Abbott Laboratory, North Chicago, Ill.) until no withdrawal to pinch of the leg occurred (by forceps). […] All drugs were given alone or co-administered with capsaicin at 0.05%/1.6 mM. Co-administration of capsaicin was performed either 10 minutes after the first drug or simultaneously (e.g., mixed with the local anesthetic). The vehicle control group received local anesthetic followed by injection of vehicle 10 minutes later. Capsaicin was also injected alone as was normal saline. Each drug was injected was injected in a volume of 0.2 mL. The experimenter was blinded to the drug used, but was not blinded to the administration of a second drug 10 minutes later which was either capsaicin or vehicle alone.
The effects of local anesthetics and capsaicin on motor function and nociception were evaluated. Rats were examined before injection for baseline functions, and at 10, 20, 30, 60, and 90 minutes and 2, 3, 6, 12, 24, and 36 hours after drug administration. Motor function was assayed by holding the rat upright with the control hind limb extended so that the distal metatarsus and toes of the target leg supported the animal's weight; the extensor postural thrust was recorded as the force (in grams) applied by each of the two hind limbs to a digital platform balance (Ohaus Lopro; Fisher Scientific, Florham Park, N.J.). The reduction in this force, representing reduced extensor-muscle contraction caused by motor block, was calculated as a percentage of the control force (pre-injection control value=145 to 165 g). The percent reduction in force was assigned a ‘range’ score: 0=no block (or baseline); 1=minimal block, force between the pre-injection control value of 100% and 50%; 2=moderate block, force between 50% of the pre-injection control value and 20 g (˜20 g represented the approximate weight of the flaccid limb); 3=complete block, force 20 g or less.
For both nociceptive and motor assessment, the examination was repeated three times at each time point and reported as an average of the three exams.

Series [4] concerns cutaneous trunci muscle reflex. The class given is in vivo, rat. The source says: (§1) It was hypothesized that the combined application of amitriptyline and capsaicin as a transdermal patch will produce prolonged cutaneous analgesia compared to amitriptyline alone. Male Sprague-Dawley rats (weights 250-300 g) were assigned to five treatment groups (n=6-8). Transdermal patches containing amitriptyline with different concentrations of capsaicin were applied to the rats' shaved backs: 2.5% amitriptyline alone (control group) and in combinations with 0.05%, 0.15%, 1, and 8% capsaicin for 3 hours. Behavioral testing for cutaneous nociception was conducted before and after patch removal, using the cutaneous trunci muscle reflex (CTMR). In addition, skin appearance was assessed to determine irritation by the formulation.

The test system of the next series is skin. Nature of the series: Skin appearance / irritation after transdermal patch. The class given is in vivo, rat.
Source text: as §1

[5] abbreviates: 0.25% drug + 0.05% capsaicin (10 min apart).
[6] abbreviates: 0.25% drug + 0.05% capsaicin (mixed).
[7] abbreviates: 0.25% drug + vehicle (10 min apart).
The mark [8] stands for this setting: 0.0625% drug + 0.05% capsaicin (10 min apart).
Where [9] appears, read: 0.0625% drug alone, 0.2 mL at sciatic notch.
Setting [10] is: 0.125% drug + 0.05% capsaicin (10 min apart).
Setting [11] is: 0.125% drug + 0.05% capsaicin (mixed).
Where [12] appears, read: 0.125% drug + vehicle (10 min apart).
The mark [13] stands for this setting: 0.125% solution administered alone.
Setting [14] is: 2% drug + 0.05% capsaicin (10 min apart).
[15] abbreviates: 2% drug + 0.05% capsaicin (mixed).
Where [16] appears, read: 2% drug + vehicle (10 min apart).
Setting [17] is: 2.5% amitriptyline patch alone, applied 3 hours.

“Also recorded” adds a separate entry of the source. Structures can show the parent of a compound that is named as a salt. Where two headings read alike, the source gives them in different places.

On to `CC[N+](CC)(CC)CC(=O)Nc1c(C)cccc1C` [QX-314], for which, in the series with sciatic nerve [1], the “kind of sciatic nerve block, in words” value was “nociceptor-selective sciatic nerve block”.

For the molecule `CCCCN1CCCCC1C(=O)Nc1c(C)cccc1C` (stereo not shown) [Bupivacaine, bupivacaine hydrochloride], the “Complete recovery time, Nociception, Mean” value with sciatic nerve [2] (setting [5]) was determined as 23.14 h; in the series on sciatic nerve [2] (setting [6]) it was 1.63 h; in the series with sciatic nerve [2] (setting [7]) it was 4.75 h; with sciatic nerve [2] (0.25% drug alone), 2.50 h. The “nociceptive vs motor blockade, in words” value in the series on sciatic nerve [2] (0.25%, followed by capsaicin or vehicle 10 minutes later) was “significantly increased the nociceptive blockade over motor blockade”. In the series on sciatic nerve [2], the “kind of blockade (nociceptive vs motor), in words” value is on record as “predominantly nociceptive-specific blockade”. Also, the “effect of vehicle on block, in words” value with sciatic nerve [2] was “intensification of both motor and nociceptive block”. For the same molecule, the “Complete recovery time, Motor, Mean” value in the series on sciatic nerve [3] (setting [5]) turned out to be 2.31 h; in the series with sciatic nerve [3] (setting [6]), 1.56 h; with sciatic nerve [3] (setting [7]), 2.87 h; in the series on sciatic nerve [3] (0.25% drug alone), 2.31 h. Also, the “effect on motor block, in words” value in the series with sciatic nerve [3] (capsaicin given simultaneously with the local anesthetic) is “decreased the absolute duration of motor block”.

On to `C[N+](C)(C)CCC=C1c2ccccc2CCc2ccccc21` [N-Methyl Amitriptyline, N-methyl amitriptyline], for which the “Complete recovery time, Nociception, Mean” value stood at 0.13 h in the series with sciatic nerve [2] (setting [8]); 0.00 h with sciatic nerve [2] (setting [9]); 11.63 h in the series with sciatic nerve [2] (setting [10]); 10.87 h with sciatic nerve [2] (setting [11]); 0.81 h in the series on sciatic nerve [2] (setting [12]); 0.67 h in the series on sciatic nerve [2] (0.125% drug alone). Moreover, the “Complete recovery time, Nociception, Mean” value in the series on sciatic nerve [2] (setting [5]) is 33.00 h; in the series with sciatic nerve [2] (0.25% drug alone), 3.63 h. Besides, the “dose-response of block, in words” value with sciatic nerve [2] is “dose-dependent and predominantly nociceptive block”. Besides, the “kind of blockade, in words” value in the series on sciatic nerve [2] (0.125% + capsaicin 0.05%, 10 minutes after or injected simultaneously) is “very prolonged sensory-selective block”. Moreover, the “duration of nociceptive blockade” value in the series with sciatic nerve [2] (setting [13]) was less than 1 h. Moreover, the “kind of blockade (nociceptive vs motor), in words” value in the series with sciatic nerve [2] is on record as “predominantly nociceptive-specific blockade”. For the same molecule, the “Complete recovery time, Motor, Mean” value is 0.06 h in the series with sciatic nerve [3] (setting [8]); 0.12 h in the series with sciatic nerve [3] (setting [9]); 0.04 h with sciatic nerve [3] (setting [10]); 0.12 h in the series with sciatic nerve [3] (setting [11]); 0.38 h in the series with sciatic nerve [3] (setting [12]); 0.31 h in the series on sciatic nerve [3] (0.125% drug alone). Besides, the “Complete recovery time, Motor, Mean” value in the series on sciatic nerve [3] (setting [5]) stood at 1.81 h; with sciatic nerve [3] (0.25% drug alone) it was 1.44 h. Besides, the “duration of motor blockade” value in the series on sciatic nerve [3] (setting [13]) is less than 1 h.

In the case of `COc1cc(CNC(=O)CCCCC=CC(C)C)ccc1O` [capsaicin, 8-methyl-N-vanillyl-6-nonenamide], the “motor and nociceptive block, in words” value in the series on sciatic nerve [2] (injected alone, 0.05%, 0.2 mL) is on record as “no detectable block”.

As to `CCN(CC)CC(=O)Nc1c(C)cccc1C` [Lidocaine, lidocaine hydrochloride], the “Complete recovery time, Nociception, Mean” value in the series with sciatic nerve [2] (setting [14]) stood at 7.62 h; in the series on sciatic nerve [2] (setting [15]), 3.00 h; with sciatic nerve [2] (setting [16]), 2.12 h; with sciatic nerve [2] (2% drug alone), 1.25 h. Moreover, in the series on sciatic nerve [2] (2% given alone), the “motor and nociceptive block, in words” value is “complete but relatively short-lasting motor and nociceptive block”. The “kind of blockade (nociceptive vs motor), in words” value in the series on sciatic nerve [2] (hydrochloride) is recorded as “smallest differential block among all drug combinations”; with sciatic nerve [2] (listed as lidocaine, hydrochloride), “predominantly nociceptive-specific blockade”. For the same molecule, the “effect of vehicle on block, in words” value in the series with sciatic nerve [2] is “intensification of both motor and nociceptive block”. The “Complete recovery time, Motor, Mean” value stood at 1.69 h in the series on sciatic nerve [3] (setting [14]), 1.50 h with sciatic nerve [3] (setting [15]), 2.00 h in the series with sciatic nerve [3] (setting [16]) and 1.13 h in the series on sciatic nerve [3] (2% drug alone).

Turning to `CN(C)CCC=C1c2ccccc2CCc2ccccc21` [Amitriptyline, amitriptyline hydrochloride], the “complete block to pinprick (duration)” value in series [4] (setting [17]) is 4.5 h; in series [4] (3 h) it was 6 to 9 h. Besides, the “time to full recovery” value in series [4] (setting [17]) turned out to be 96 h; in series [4] (3 h) it was 216 h. Also, the figures for the “skin effects, in words” value in the series on skin (2.5% amitriptyline patch alone) and in the series with skin (amitriptyline 2.5% with capsaicin 8% patch) were “causes toxic effects in skin” and “no adverse skin reactions”, respectively. The “Complete recovery time, Nociception, Mean” value in the series with sciatic nerve [2] (setting [8]) turned out to be 2.88 h; in the series with sciatic nerve [2] (setting [9]), 0.25 h; in the series on sciatic nerve [2] (setting [10]) it was 17.25 h; with sciatic nerve [2] (setting [11]), 2.69 h; with sciatic nerve [2] (setting [12]), 2.13 h; with sciatic nerve [2] (0.125% drug alone) it was 4.56 h. The “Complete recovery time, Nociception, Mean” value in the series with sciatic nerve [2] (setting [5]) was found to be 33.37 h; in the series with sciatic nerve [2] (0.25% drug alone), 11.25 h. The “dose-response of block, in words” value in the series with sciatic nerve [2] is “dose-dependent and predominantly nociceptive block”. The “kind of blockade (nociceptive vs motor), in words” value in the series with sciatic nerve [2] (hydrochloride) was “predominantly nociceptive-specific blockade; also recorded: large differential block”. The “Complete recovery time, Motor, Mean” value in the series with sciatic nerve [3] (setting [8]) is 1.38 h; in the series with sciatic nerve [3] (setting [9]) it was 0.44 h; with sciatic nerve [3] (setting [10]), 3.25 h; in the series on sciatic nerve [3] (setting [11]), 0.44 h; with sciatic nerve [3] (setting [12]), 2.62 h; in the series on sciatic nerve [3] (0.125% drug alone), 3.44 h. The “Complete recovery time, Motor, Mean” value in the series with sciatic nerve [3] (setting [5]) is 2.31 h; in the series with sciatic nerve [3] (0.25% drug alone), 9.13 h. The “effect on motor block, in words” value was “motor block decreased” with sciatic nerve [3] (0.25%, followed by capsaicin) and “significantly decreased the motor blockade; also recorded: decreased the absolute duration of motor block” in the series with sciatic nerve [3] (capsaicin given simultaneously with the local anesthetic, hydrochloride).

The values are drawn from patent US20100190860A1, “METHODS FOR SELECTIVELY ENHANCING ANTINOCICEPTIVE POTENCY OF LOCAL ANESTHETICS” (The Brigham and Women's Hospital, Inc., priority 2009, published 2010).
